Assays:
Type in all cases: biochemical
recombinant human VAP-1 = target: T1, recombinant human VAP-1 (Homo sapiens, UniProt Q16853); assay: Activity on recombinant human VAP-1, HRP-coupled Amplex Red hydrogen peroxide assay; conditions: substrate 1 mM benzylamine; compound incubated with enzyme at 37° C. for 30 minutes; pH 7.4; read-out: Inhibitory Activity (IC50, nM) human VAP-1
T1 construct: purchased R&D systems
T1 sequence (Q16853 1-763): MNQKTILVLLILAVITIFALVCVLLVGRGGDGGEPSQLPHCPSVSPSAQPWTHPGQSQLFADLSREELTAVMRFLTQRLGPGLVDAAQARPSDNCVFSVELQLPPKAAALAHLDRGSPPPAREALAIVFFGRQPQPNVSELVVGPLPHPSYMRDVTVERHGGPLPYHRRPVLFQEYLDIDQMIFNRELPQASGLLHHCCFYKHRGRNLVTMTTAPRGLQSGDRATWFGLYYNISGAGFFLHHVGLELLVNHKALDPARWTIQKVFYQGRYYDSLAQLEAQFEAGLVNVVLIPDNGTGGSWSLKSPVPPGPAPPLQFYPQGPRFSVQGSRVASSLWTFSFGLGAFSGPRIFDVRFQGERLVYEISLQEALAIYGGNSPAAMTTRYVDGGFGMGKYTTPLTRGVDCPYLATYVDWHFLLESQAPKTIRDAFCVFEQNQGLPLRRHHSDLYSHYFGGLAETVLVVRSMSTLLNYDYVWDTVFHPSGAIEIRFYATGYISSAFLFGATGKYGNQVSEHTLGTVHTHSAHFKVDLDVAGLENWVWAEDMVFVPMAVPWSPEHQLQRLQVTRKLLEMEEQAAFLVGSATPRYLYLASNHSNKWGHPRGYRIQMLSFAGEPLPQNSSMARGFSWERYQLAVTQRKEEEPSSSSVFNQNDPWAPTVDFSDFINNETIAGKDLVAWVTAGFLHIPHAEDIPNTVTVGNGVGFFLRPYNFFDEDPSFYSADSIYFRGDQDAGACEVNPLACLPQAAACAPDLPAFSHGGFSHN
Method in brief: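 Fluorescence of resorufin formed from H2O2 (ex 544 nm, em 590 nm) was tracked for 1-2 h after adding 1 mM benzylamine, 200 uM Amplex Red and 1 U/mL HRP to enzyme pretreated with compound for 30 min at 37 °C. IC50 values derive from four-variable logistic fits.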

[1] = target: T2, recombinant human MAO-A (monoamine oxidase-A) (Homo sapiens, UniProt P21397); assay: Activity on recombinant human MAO-A, method similar to the VAP-1 assay; conditions: substrate 0.5 mM tyramine; read-out: Inhibitory Activity (IC50, nM) MAO-A
T2 construct: purchased Sigma-Aldrich
T2 sequence (P21397 1-527): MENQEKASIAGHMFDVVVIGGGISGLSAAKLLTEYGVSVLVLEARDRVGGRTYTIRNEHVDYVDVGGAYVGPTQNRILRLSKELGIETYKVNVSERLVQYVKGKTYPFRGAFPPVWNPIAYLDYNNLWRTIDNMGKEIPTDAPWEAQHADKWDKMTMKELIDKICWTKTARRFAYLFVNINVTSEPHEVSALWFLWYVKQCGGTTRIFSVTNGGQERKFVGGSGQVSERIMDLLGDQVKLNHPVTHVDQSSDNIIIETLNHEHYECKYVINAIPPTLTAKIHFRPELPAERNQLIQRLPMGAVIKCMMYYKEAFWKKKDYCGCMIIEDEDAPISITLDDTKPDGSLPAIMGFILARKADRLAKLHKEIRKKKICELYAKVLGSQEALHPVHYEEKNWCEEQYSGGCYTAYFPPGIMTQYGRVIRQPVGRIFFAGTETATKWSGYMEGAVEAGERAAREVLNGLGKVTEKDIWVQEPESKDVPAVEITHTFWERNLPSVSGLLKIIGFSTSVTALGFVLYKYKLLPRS
Method in brief: (§1)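 Fluorescence (544/590 nm) of resorufin formed from Amplex Red by HRP and enzyme-generated H2O2 was followed over 1-2 h. Substrates were 0.5 mM tyramine for MAO-A and 1 mM benzylamine for MAO-B; compounds were preincubated with enzyme for 30 min at 37° C. IC50 came from four-parameter logistic fitting of signal-rate inhibition.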

[2] = target: T3, recombinant human MAO-B (monoamine oxidase-B) (Homo sapiens, UniProt P27338); assay: Activity on recombinant human MAO-B, method similar to the VAP-1 assay; conditions: substrate 1 mM benzylamine; read-out: Inhibitory Activity (IC50, nM) MAO-B
T3 construct: purchased Sigma-Aldrich
T3 sequence (P27338 1-520): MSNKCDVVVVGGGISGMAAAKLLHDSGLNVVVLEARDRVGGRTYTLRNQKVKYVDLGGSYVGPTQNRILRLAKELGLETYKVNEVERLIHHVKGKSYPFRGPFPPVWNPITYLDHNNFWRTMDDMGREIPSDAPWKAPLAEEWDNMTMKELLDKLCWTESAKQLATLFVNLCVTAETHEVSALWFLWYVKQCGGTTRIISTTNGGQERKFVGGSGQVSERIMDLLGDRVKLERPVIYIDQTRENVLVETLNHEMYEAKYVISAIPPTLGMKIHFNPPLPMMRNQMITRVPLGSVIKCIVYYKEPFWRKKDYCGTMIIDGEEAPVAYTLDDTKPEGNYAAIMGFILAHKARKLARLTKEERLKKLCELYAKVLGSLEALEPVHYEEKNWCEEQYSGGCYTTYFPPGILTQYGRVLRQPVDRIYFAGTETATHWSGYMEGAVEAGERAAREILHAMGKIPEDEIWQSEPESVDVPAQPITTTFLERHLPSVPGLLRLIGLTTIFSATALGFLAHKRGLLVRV
Method in brief: as §1

[3] = target: T4, recombinant human DAO (diamine oxidase) (Homo sapiens, UniProt P19801); assay: Activity on recombinant human DAO, method similar to the VAP-1 assay; conditions: substrate 1 mM putrescine; read-out: Inhibitory Activity (IC50, nM) DAO
T4 construct: purchased R&D systems
T4 sequence (P19801 20-751): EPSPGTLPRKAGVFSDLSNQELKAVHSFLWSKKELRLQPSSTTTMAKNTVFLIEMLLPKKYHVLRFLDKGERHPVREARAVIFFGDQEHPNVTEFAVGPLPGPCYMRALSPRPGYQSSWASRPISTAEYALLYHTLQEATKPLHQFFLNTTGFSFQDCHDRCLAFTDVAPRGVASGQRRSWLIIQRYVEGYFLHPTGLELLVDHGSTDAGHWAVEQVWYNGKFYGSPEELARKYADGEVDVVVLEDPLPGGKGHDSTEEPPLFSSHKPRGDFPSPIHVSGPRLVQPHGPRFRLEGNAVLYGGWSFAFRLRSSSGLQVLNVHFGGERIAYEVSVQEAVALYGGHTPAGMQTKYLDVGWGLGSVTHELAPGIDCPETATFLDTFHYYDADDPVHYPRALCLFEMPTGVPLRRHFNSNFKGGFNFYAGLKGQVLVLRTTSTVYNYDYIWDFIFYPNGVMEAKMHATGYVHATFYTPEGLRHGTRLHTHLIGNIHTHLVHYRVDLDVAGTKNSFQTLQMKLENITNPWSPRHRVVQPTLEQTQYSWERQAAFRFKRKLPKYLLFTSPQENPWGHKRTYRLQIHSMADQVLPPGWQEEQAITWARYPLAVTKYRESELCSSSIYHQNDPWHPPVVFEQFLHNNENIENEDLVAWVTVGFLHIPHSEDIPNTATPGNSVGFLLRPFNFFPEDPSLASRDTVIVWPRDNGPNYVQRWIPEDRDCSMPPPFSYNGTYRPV
Method in brief: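 Inhibition of recombinant human diamine oxidase (DAO, R&D systems) was assessed by the same approach as the VAP-1 assay, using 1 mM putrescine as substrate. Hydrogen peroxide formed was detected through an HRP-coupled Amplex Red reaction yielding fluorescent resorufin, read at 544 nm excitation and 590 nm emission. IC50 values came from four-parameter logistic fitting in GraphPad Prism.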

IC50 (recombinant human VAP-1) | IC50 [1] | IC50 [2] | IC50 [3] | Structure (SMILES)
3.7 nM | > 100000 nM | 6600 nM | 3600 nM | CN(C)C(=O)c1cccc(-c2ccc(Cn3cnn(C/C(=C/F)CN)c3=O)s2)c1 [Example 182, 3-[5-({1-[(2E)-2-(aminomethyl)-3-fluoroprop-2-en-1-yl]-5-oxo-1,5-dihydro-4H-1,2,4-triazol-4-yl}methyl)thiophen-2-yl]-N,N-dimethylbenzamide]
1.2 nM | > 100000 nM | 220 nM | 440 nM | CN(C)S(=O)(=O)c1cccc(-c2ccc(Cn3cnn(C/C(=C/F)CN)c3=O)s2)c1 [Example 183, 3-[5-({1-[(2E)-2-(aminomethyl)-3-fluoroprop-2-en-1-yl]-5-oxo-1,5-dihydro-4H-1,2,4-triazol-4-yl}methyl)thiophen-2-yl]-N,N-dimethylbenzenesulfonamide]
3.4 nM | > 100000 nM | 330 nM | 3800 nM | NC/C(=C\F)Cn1ncn(Cc2ccc(-c3cccc(-c4cc[nH]n4)c3)s2)c1=O [Example 184, 2-[(2E)-2-(aminomethyl)-3-fluoroprop-2-en-1-yl]-4-({5-[3-(1H-pyrazol-3-yl)phenyl]thiophen-2-yl}methyl)-2,4-dihydro-3H-1,2,4-triazol-3-one]
2.7 nM | > 100000 nM | 310 nM | 730 nM | CC(C)Oc1ccc(-c2ccc(Cn3cnn(C/C(=C/F)CN)c3=O)s2)cn1 [Example 185, 2-[(2E)-2-(aminomethyl)-3-fluoroprop-2-en-1-yl]-4-({5-[6-(propan-2-yloxy)pyridin-3-yl]thiophen-2-yl}methyl)-2,4-dihydro-3H-1,2,4-triazol-3-one]
1.3 nM | > 100000 nM | 1600 nM | 1800 nM | Cn1cc(-c2ccc(Cn3cnn(C/C(=C/F)CN)c3=O)s2)ccc1=O [Example 187, 5-[5-({1-[(2E)-2-(aminomethyl)-3-fluoroprop-2-en-1-yl]-5-oxo-1,5-dihydro-4H-1,2,4-triazol-4-yl}methyl)thiophen-2-yl]-1-methylpyridin-2(1H)-one]
4.2 nM | > 100000 nM | > 10000 nM | 450 nM | CS(=O)(=O)CCn1cc(-c2ccc(Cn3cnn(C/C(=C/F)CN)c3=O)s2)ccc1=O [Example 188, 5-[5-({1-[(2E)-2-(aminomethyl)-3-fluoroprop-2-en-1-yl]-5-oxo-1,5-dihydro-4H-1,2,4-triazol-4-yl}methyl)thiophen-2-yl]-1-[2-(methylsulfonyl)ethyl]pyridin-2(1H)-one]
0.7 nM | 22500 nM | 420 nM | 780 nM | CC(=O)Nc1nc2cc(-c3ccc(Cn4cnn(C/C(=C/F)CN)c4=O)s3)ccc2s1 [Example 189, N-{5-[5-({1-[(2E)-2-(aminomethyl)-3-fluoroprop-2-en-1-yl]-5-oxo-1,5-dihydro-4H-1,2,4-triazol-4-yl}methyl)thiophen-2-yl]-1,3-benzothiazol-2-yl}acetamide]
3.8 nM | > 100000 nM | > 100000 nM | 1800 nM | NC/C(=C\F)Cn1ncn(Cc2ccc(-c3cnn(C4CCNCC4)c3)s2)c1=O [Example 190, 2-[(2E)-2-(aminomethyl)-3-fluoroprop-2-en-1-yl]-4-({5-[1-(piperidin-4-yl)-1H-pyrazol-4-yl]thiophen-2-yl}methyl)-2,4-dihydro-3H-1,2,4-triazol-3-one]
1.1 nM | > 100000 nM | 1500 nM | 130 nM | NC/C(=C\F)Cn1ncn(Cc2ccc(-c3ccc(=O)n(Cc4ccccc4)c3)s2)c1=O [Example 191, 5-[5-({1-[(2E)-2-(aminomethyl)-3-fluoroprop-2-en-1-yl]-5-oxo-1,5-dihydro-4H-1,2,4-triazol-4-yl}methyl)thiophen-2-yl]-1-benzylpyridin-2(1H)-one]
1 nM | > 100000 nM | 120 nM | 310 nM | NC/C(=C\F)Cn1ncn(Cc2ccc(-c3ccc4nsnc4c3)s2)c1=O [Example 192, 2-[(2E)-2-(aminomethyl)-3-fluoroprop-2-en-1-yl]-4-{[5-(2,1,3-benzothiadiazol-5-yl)thiophen-2-yl]methyl}-2,4-dihydro-3H-1,2,4-triazol-3-one]
1 nM | > 100000 nM | 85 nM | 2000 nM | NC/C(=C\F)Cn1ncn(Cc2ccc(-c3ccc4c(c3)COC4)s2)c1=O [Example 193, 2-[(2E)-2-(aminomethyl)-3-fluoroprop-2-en-1-yl]-4-{[5-(1,3-dihydro-2-benzofuran-5-yl)thiophen-2-yl]methyl}-2,4-dihydro-3H-1,2,4-triazol-3-one]
1.6 nM | > 100000 nM | 1500 nM | 1200 nM | CCn1cc(-c2ccc(Cn3cnn(C/C(=C/F)CN)c3=O)s2)ccc1=O [Example 194, 5-[5-({1-[(2E)-2-(aminomethyl)-3-fluoroprop-2-en-1-yl]-5-oxo-1,5-dihydro-4H-1,2,4-triazol-4-yl}methyl)thiophen-2-yl]-1-ethylpyridin-2(1H)-one]

Reference: patent US11780830B2, “Triazolone derivatives or salts thereof and pharmaceutical compositions comprising the same” (YUHAN CORPORATION, priority 2018, dated 2023)
